# Experimental data from PMC2680961, “Homologous desensitization of signalling by the alpha (α) isoform of the human thromboxane A2 receptor: A specific role for nitric oxide signalling” (Biochimica et Biophysica Acta, 2007).
# Changes are numbered by the printed parent chain.
# Experiments:
# TPα^S239A = molecular target: T1, TPα^S239A (Homo sapiens, UniProt P21731, S239A); assay: [3H]SQ29,548 radioligand binding, Scatchard analysis, HEK.TPα^S239A
# T1 construct: expressed in transfected cells
# T1 sequence (P21731 1-343 S239A): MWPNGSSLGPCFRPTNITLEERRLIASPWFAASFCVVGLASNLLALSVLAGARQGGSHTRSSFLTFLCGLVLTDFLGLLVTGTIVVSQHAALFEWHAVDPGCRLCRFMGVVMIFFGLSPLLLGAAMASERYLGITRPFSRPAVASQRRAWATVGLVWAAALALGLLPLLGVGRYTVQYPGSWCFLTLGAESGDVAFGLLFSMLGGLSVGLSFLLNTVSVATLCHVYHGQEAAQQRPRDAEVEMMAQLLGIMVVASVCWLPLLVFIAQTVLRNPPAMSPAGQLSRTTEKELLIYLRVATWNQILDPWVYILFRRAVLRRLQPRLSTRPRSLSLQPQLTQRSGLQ
# Description: (§1) Cells were harvested by centrifugation at 500×g at 4 °C for 5 min and washed three times with ice-cold Ca^2+/Mg^2+-free phosphate-buffered saline (PBS). TP radioligand binding assays were carried out at 30 °C for 30 min in 100 μl reactions in the presence of 0–40 nM [^3H] […] Protein determinations were carried out using the Bradford assay.
# (§2) Radioligand binding and Scatchard analysis data were analysed using GraphPad Prisim V4.0 programme (GraphPad Software Inc., San Diego CA, USA). Statistical analyses were carried out using the unpaired Student's t test using the Statworks Analysis Package. p-values ≤ 0.01 indicated statistically significant differences.
# TPα^S331,T337A = molecular target: T2, TPα^S331,T337A (Homo sapiens, UniProt P21731, S331A/T337A); assay: [3H]SQ29,548 radioligand binding, Scatchard analysis, HEK.TPα^S331,T337A
# T2 construct: expressed in transfected cells
# T2 sequence (P21731 1-343 S331A/T337A): T1 sequence (P21731 1-343 S239A) with A239S, S331A, T337A
# Description: as §1, §2
# TPα^T337,S340A = molecular target: T3, TPα^T337,S340A (Homo sapiens, UniProt P21731, S340A/T337A); assay: Intracellular calcium mobilization, HEK.TPα^T337,S340A cells; assay type: cell-based
# T3 construct: expressed in transfected cells
# T3 sequence (P21731 1-343 T337A/S340A): T1 sequence (P21731 1-343 S239A) with A239S, T337A, S340A
# Description: Measurement of intracellular calcium mobilization ([Ca^2+]i) in FURA2/AM preloaded HEK 293 cell lines (2 × 10^6 cells/dish), each transiently co-transfected with pADVA (10 μg), and pCMV:Gαq (25 μg), was carried out as previously described. To investigate the effect of GRK2/βARK1 on TP-mediated [Ca^2+]i mobilization, HEK.TPα or HEK.TPβ cells (2 × 10^6 cells/dish) were co-transfected with pADVA (10 μg), pCMV:Gαq (25 μg) along with pRK5:βARK1^495–689 (25 μg), encoding a dominant negative form of GRK2/βARK1[39]. […] For each measurement of [Ca^2+]i mobilization, aliquots of cells were diluted to 0.825 × 10^6 cells/ml in HBSSHB, 1 mM CaCl2 and FURA2 fluorescence was recorded (2 ml aliquots of cells) at 37^ °C with gentle stirring with a Perkin Elmer-Cetus LS50-B spectrofluorometer at excitation wavelengths of 340 nm and 380 nm and emission wavelength of 510 nm, respectively.
# Cells were stimulated with the TP agonist U46619 (1 μM) and changes in [Ca^2+]i mobilization were monitored as a function of time. […]
# The vehicle had no effect on U46619-mediated [Ca^2+]i mobilization. Calibration of the signal was performed in each sample by adding 0.2% Triton X-100 to obtain the maximal fluorescence ratio (Rmax) and then 1 mM EGTA to obtain the minimal fluorescence ratio (Rmin). […]
Bmax (pmol/mg protein ± S.E.M.) (TPα^S239A),"Bmax (pmol/mg protein ± S.E.M.) (TPα^S331,T337A)","Δ[Ca2+]i, U46619-induced (TPα^T337,S340A; primary 1 μM U46619 4 min)","Δ[Ca2+]i, U46619-induced (TPα^T337,S340A; secondary 1 μM U46619 at 15 min)",Compound
4.35 ± 0.04 pmol/mg protein,3.23 ± 0.03 pmol/mg protein,–,–,"O=C(O)CCC/C=C\C[C@@H]1[C@H](CNNC(=O)Nc2ccccc2)[C@H]2CC[C@@H]1O2 [SQ29,548]"
–,–,179 ± 11 nM,40 ± 3.4 nM,CCCCC[C@H](O)/C=C/[C@@H]1[C@@H](C/C=C\CCCC(=O)O)[C@H]2CO[C@@H]1C2 [U46619]
